Measurements published in PMC6429055, “Synthesis, Photochemical and In Vitro Cytotoxic Evaluation of New Iodinated Aminosquaraines as Potential Sensitizers for Photodynamic Therapy” (Molecules, 2019).
Like-named read-outs stand apart in the source and are kept apart here.

Key:
[1] = Fluorescence quantum yield; type: physicochemical; conditions: In CHCl3
Source text: As expected, due to the covalent link between iodine and the aminosquaraine, a strong heavy atom effect can be observed in all cases. This effect is emphasized in the case of the bis(hydroxyethyl)amino substituent group (dye 5c).

[2] = Singlet oxygen formation quantum yield (phosphorescence emission at ~1270 nm vs phenazine standard); type: physicochemical; conditions: In CHCl3, excitation 337 nm
Protocol: The evaluation of the photosensitizing efficiency of the aminosquaraine dyes was performed in chloroform, by determining the singlet oxygen formation quantum yields (ΦΔ). Phenazine was used as standard. The phosphorescence emission of singlet oxygen generated by the sensitizers at approximately 1270 nm is presented in Figure 2 and the determined quantum yields are summarized in Table 1.
These ΦΔ values were obtained by a simple comparison of the integrated areas determined for the standard and samples, using the same OD at the excitation wavelength. For each determination an average of 100 phosphorescence spectra were used. […] As previously reported, the amino group in the squaric ring enhances singlet oxygen generation efficiency when compared with the unsubstituted zwitterionic dye 3. […] This is related with the intramolecular charge transfer (ICT) mechanism which provides a non-radiative deactivation pathway, therefore decreasing the singlet oxygen formation quantum yields ([44] and references therein).
The singlet oxygen measurement set-up was assembled in our laboratory as previously described. As an excitation source we used a nitrogen laser, excitation wavelength = 337 nm. The detector was an InGaAs CCD (model i-Dus from Andor Technology Limited, Belfast, UK) working at low temperature (−60 °C) coupled to a fixed spectrograph, model Shamrock 163i, also from Andor. Phenazine (standard) was used at O.D. = 0.6 in chloroform. The ΦΔ values were obtained by comparing the total area of the emission spectra for the reference and for each dye under study in the same solvent, with the same optical density at the excitation wavelength. […].

[3] = test system: HeLa, HepG2, MCF-7 and NCI-H460 cell lines; test: SRB growth inhibition across the human tumor cell line panel, dark vs irradiation (text summaries); type: cell-based; conditions: for GI50: Homo sapiens; for Difference between growth inhibition percentages upon illumination and in the dark: dye 0.3 μM, range over the cell lines
Protocol: In this representative example, the growth inhibition in the dark was less than 20% in more than 75% of the assays.
(§1) Stock solutions of the aminosquaraines 5a–e with different concentrations (0.0375 μM, 0.15 μM, 0.6 μM, 6 μM, 12 μM, 25 μM, 50 μM, 500 μM) were prepared using a solution of 3% DMSO in DMEM and kept at−20 °C. Prior to the in vitro assays diluted solutions were prepared with the same solvent to obtain solutions with final concentrations of 0.03 μM, 0.3 μM, 0.6 μM, 1.25 μM, 2.5 μM and 25 μM.
(§2) The cytotoxicity of the squaraine dyes was tested in the dark and under irradiation. For irradiation of the cells a halogen/tungsten lamp (24 V and 250 W, Osram, Carnaxide, Portugal) was used with a fluence rate of […] (measured with an ILT 1400-A radiometer equipped with a SEL033 detector, ILT, Peabody, MA, USA). The cells were irradiated continuously for 30 min. A 3% aqueous solution of K2Cr2O7 was placed between the lamp and the cells as a liquid cut off filter to remove light of wavelength shorter than ~500 nm. The temperature to which the cells were exposed was carefully monitored to guarantee cell viability.
(§3) Four human tumor cell lines were used: MCF-7 (breast adenocarcinoma), NCI-H460 (non-small cell lung carcinoma), HeLa (cervical carcinoma) and HepG2 (hepatocellular carcinoma) from DSMZ (Leibniz-Institut DSMZ-Deutsche Sammlung von Mikroorganismen und Zellkulturen GmbH, Mönchengladbach, Germany). Cells were routinely maintained as adherent cell cultures in RPMI-1640 medium containing 10% heat-inactivated FBS and 2 mM glutamine at […], in a humidified air incubator containing 5% CO2. Each cell line was plated at an appropriate density (7.5 × 10^3 cells/well for MCF-7 and NCI-H460, and 1.0 × 10^4 cells/well for HeLa and HepG2) in 96-well plates, allowed to attach for 24 h and then treated with different concentrations of each squaraine dye. Controls were set with the cells in the absence of the dyes in 3% DMSO in DMEM and in the growth medium only. After the incubation step (24 h), the cells were submitted to the photodynamic treatment for 30 min. Controls in the absence of light were performed on every test. Neither DMSO alone, nor light alone, nor the combination of both induced toxicity on the cells. Then, the growth medium was changed and the cells were incubated for further 24 h. Following this incubation period, the adherent cells were fixed by adding cold 10% TCA (100 µL) and incubated for 60 min at 4 °C. Plates were then washed with deionized water and subsequently dried. SRB solution (0.1% in 1% acetic acid, 100 µL) was then added to each plate well and incubated for 30 min at room temperature. Unbound SRB was removed by washing with 1% acetic acid. Plates were air dried, the bound SRB was solubilized with 10 mM Tris (200 µL) and the absorbance was measured at 540 nm in an ELX800 Microplate Reader (Bio-Tek Instruments Inc., Winooski, VT, USA). The results were expressed in GI50 values, which correspond to the concentration of dye that causes 50% inhibition of cell growth. All the assays were performed in duplicate. Ellipticine was used as standard.

[4] = test system: HeLa (cervical carcinoma); test: SRB cytotoxicity, dark and after irradiation (photodynamic treatment); type: cell-based; conditions: Homo sapiens, mean ± SD
Protocol: as §1, §2, §3

[5] = test system: HepG2 (hepatocellular carcinoma); test: as above; type: cell-based; conditions: Homo sapiens, mean ± SD
Protocol: as §1, §2, §3

[6] = test system: MCF-7 (breast adenocarcinoma); test: as above; type: cell-based; conditions: Homo sapiens, mean ± SD
Protocol: as §1, §2, §3

[7] = test system: NCI-H460 (non-small cell lung carcinoma); test: as above; type: cell-based; conditions: Homo sapiens, mean ± SD
Protocol: as §1, §2, §3

[8] = SRB cytotoxicity in non-tumor porcine liver primary cell culture, dark and after irradiation; type: cell-based; conditions: pig, PLP2 porcine liver primary cell culture (non-tumor), non-tumor cells, mean ± SD
Protocol: as §1, §2
A cell culture was prepared from a freshly harvested porcine liver obtained from a local slaughter house, and it was designed as PLP2. Briefly, the liver tissues were rinsed in Hank’s balanced salt solution containing 100 U/mL penicillin and 100 µg/mL streptomycin and divided into 1×1 mm^3 explants to ensure that all liver cells were able to access the nutrients provided by the medium. Some of these explants were placed in 25 cm^2 tissue flasks in DMEM medium supplemented with 10% fetal bovine serum, 2 mM non-essential amino acids and 100 U/mL penicillin, […] streptomycin and incubated at 37 °C with a humidified atmosphere containing 5% CO2. The medium was changed every two days. Cultivation of the cells was continued with direct monitoring every two or three days using a phase contrast microscope. Before confluence was reached, cells were subcultured and plated in 96-well plates at a density of 1.0 × 10^4 cells/well, and cultivated in DMEM medium with 10% FBS, 100 U/mL penicillin and 100 µg/mL streptomycin [47]. The PLP2 cells were incubated with the squaraine dyes and submitted to the two independent processes—dark and irradiation—as described earlier for the human tumor cell lines. The SRB assay was performed according to the procedure previously described. The results were expressed in GI50 values. All the assays were performed in duplicate. Ellipticine was used as standard.

[9] = light or radiation study, irradiated, range over cell lines, stated jointly for 5a and 5b, read-out: GI50 upon illumination, range over all the cell lines tested
[10] = light or radiation study, 0.5 h, Irradiated 30 min, halogen/tungsten lamp >500 nm
[11] = HepG2, light or radiation study, 0.5 h, Irradiated 30 min, halogen/tungsten lamp >500 nm
[12] = MCF7, light or radiation study, 0.5 h, Irradiated 30 min, halogen/tungsten lamp >500 nm
[13] = NCI-H460, light or radiation study, 0.5 h, Irradiated 30 min, halogen/tungsten lamp >500 nm

SMILES | ΦF (fluorescence quantum yield) [1] | Φ∆ (singlet oxygen generation quantum yield) [2] | melting point [°C] | GI50 [3, 9] [nM] | Difference between growth inhibition percentages upon illumination and in the dark [3] | GI50 ([4]; Dark) [nM] | GI50 [4, 10] [nM] | GI50 [5, 11] [nM] | GI50 ([5]; HepG2, Dark) [nM] | GI50 [6, 12] [nM] | GI50 ([6]; MCF7, Dark) [nM] | GI50 [7, 13] [nM] | GI50 ([7]; NCI-H460, Dark) [nM] | GI50 ([8]; Dark) [nM] | GI50 ([8]; Irradiated 30 min) [nM] | GI50 ([3]; HeLa, dark, inactive within the range of concentrations used, read-out: GI50 in the dark, all cell lines with exception of HeLa) [nM]
CCN1C(=CC2=C([O-])C(=Cc3sc4cc(I)ccc4[n+]3CC)C2=O)Sc2cc(I)ccc21 [Dye 3, 4-[(3-Ethyl-6-iodobenzothiazol-3-ium-2-yl)methylidene]-2-[(3-ethyl-6-iodo-3H-benzothiazol-2-ylidene)methyl]-3-oxocyclobut-1-en-1-olate] | 0.03 | 0.05 | > 300 |  |  |  |  |  |  |  |  |  |  |  |  | 
CCN1C(=CC2=C(N)C(=Cc3sc4cc(I)ccc4[n+]3CC)C2=O)Sc2cc(I)ccc21.[I-] [Dye 5a, 2-[2-Amino-3-(3-ethyl-6-iodo-3H-benzothiazol-2-ylidenemethyl)-4-oxocyclobut-2-enylidenemethyl]-3-ethyl-6-iodobenzothiazol-3-ium iodide] | 0.02 | 0.22 | > 300 | 4 to 190 | 46–68% | 2540 ± 20 | 4 ± 0.1 | 80 ± 1 | 20000 ± 2000 | 10 ± 1 | 15000 ± 1000 | 190 ± 20 | 15300 ± 800 | 17500 ± 100 | 2000 ± 100 | 
CCN1C(=CC2=C(NC)C(=Cc3sc4cc(I)ccc4[n+]3CC)C2=O)Sc2cc(I)ccc21.[I-] [Dye 5b, 3-Ethyl-2-[3-(3-ethyl-6-iodo-3H-benzothiazol-2-ylidenemethyl)-2-(methylamino)-4-oxocyclobut-2-enylidenemethyl]-6-iodobenzothiazol-3-ium iodide] | 0.03 | 0.26 | > 300 | 4 to 190 | 43–73% | 1200 ± 100 | 11 ± 10 | 60 ± 1 | 15000 ± 2000 | 10 ± 1 | 10000 ± 700 | 180 ± 70 | 8100 ± 900 | 5700 ± 600 | 30 ± 1 | 
CCN1C(=CC2=C(N(CCO)CCO)C(=Cc3sc4cc(I)ccc4[n+]3CC)C2=O)Sc2cc(I)ccc21.[I-] [Dye 5c, 3-Ethyl-2-{3-(3-ethyl-6-iodo-3H-benzothiazol-2-ylidenemethyl)-2-[bis(2-hydroxy-ethyl)amino]-4-oxocyclobut-2-enylidenemethyl}-6-iodobenzothiazol-3-ium iodide] | 0.01 | 0.09 | > 300 |  |  | 2000 ± 100 | 310 ± 30 | 260 ± 30 | 23000 ± 2000 | 420 ± 60 | > 25000 | 980 ± 40 | 23000 ± 2000 | 22000 ± 900 | 440 ± 10 | 
CCN1C(=CC2=C(NCCO)C(=Cc3sc4cc(I)ccc4[n+]3CC)C2=O)Sc2cc(I)ccc21.[I-] [Dye 5d, 3-Ethyl-2-{3-(3-ethyl-6-iodo-3H-benzothiazol-2-ylidenemethyl)-2-[(2-hydroxy-ethyl)amino]-4-oxocyclobut-2-enylidenemethyl}-6-iodobenzothiazol-3-ium iodide] | 0.11 | 0.19 | > 300 |  |  | 1800 ± 100 | 190 ± 10 | 380 ± 30 | > 25000 | 250 ± 40 | > 25000 | 890 ± 10 | > 25000 | > 25000 | 980 ± 20 | > 25000
CCN1C(=CC2=C(N(C)CCO)C(=Cc3sc4cc(I)ccc4[n+]3CC)C2=O)Sc2cc(I)ccc21.[I-] [Dye 5e, 3-Ethyl-2-{3-(3-ethyl-6-iodo-3H-benzothiazol-2-ylidenemethyl)-2-[(2-hydroxy-ethyl)methylamino]-4-oxocyclobut-2-enylidenemethyl}-6-iodobenzothiazol-3-ium iodide] | 0.09 | 0.16 | > 300 |  |  | 2100 ± 200 | 190 ± 20 | 190 ± 10 | 11400 ± 900 | 230 ± 20 | 9600 ± 200 | 240 ± 30 | 13000 ± 1000 | 11900 ± 200 | 420 ± 10 | 
